Measured values taken from US8980926B2, “2-aminoindole compounds and methods for the treatment of malaria” (Genzyme Corporation, priority 2009, dated 2015).
Where two headings read alike, the source gives them in different places.

Assays:
[1] = test system: P. falciparum strain 3D7; test: In vitro potency against P. falciparum strain 3D7 (SYBR green/DAPI); format: cell-based; settings: Plasmodium falciparum
[2] = Mammalian cytotoxicity, kidney epithelial; format: cell-based; settings: normal human renal proximal tubule cells; read-out: Selectivity, Mammalian cytotoxicity (IC50; μM) Kidney epithelial
[3] = Erythrocyte lysis; format: cell-based; settings: erythrocytes, read-out: Selectivity, Mammalian cytotoxicity (IC50; μM) Eryth. Lysis
[4] = test system: Plasmodium falciparum strain Dd2; test: In vitro potency against P. falciparum strain Dd2; format: cell-based; settings: read-out: Potency (IC50; nM) Plasmodium spp. Pf Dd2
[5] = Mammalian cytotoxicity, dermal fibroblast; format: cell-based; settings: human, normal human dermal fibroblasts (Clonetics #CC-2509); read-out: Selectivity, Mammalian cytotoxicity (IC50; μM) Dermal Fibroblast
[6] = test system: P. berghei N-clone; test: In vivo efficacy against P. berghei in mice (4-day suppressive test, oral); set-up: species or system P. berghei in Swiss Albino mice; settings: for No. Cured: animals cured/group; for % Suppression Day 5: vs untreated controls
Description: Because of ethical issues and costs, the acute P. berghei model in rodents is considered the “gold standard” for assessing anti-malarial efficacy in animal models. This model is adapted from Peters' “4-day suppressive test” (Peters, W. 1987. Chemotherapy and Drug Resistance in Malaria, p. 102-115, 2ed, vol. 1. Academic Press, Orlando, Fla.; Peters, W. 1975. The chemotherapy of rodent malaria, XXII. The value of drug-resistant strains of P. berghei in screening for blood schizontocidal activity. Ann Trop Med Parasitol 69:155-171). All studies were conducted in accordance with the Guide for the Care and Use of Laboratory Animals (National-Research-Council. 1996. Guide for the Care and Use of Laboratory Animals. National Academy Press, Washington, D.C.) and the PHS guidelines. Animals were maintained according to NIH guidelines and were allowed to acclimatize for 1 week prior to the commencement of studies. On Day 0, groups of 4-6-week old female Swiss Albino mice (n=5) were infected by tail vein injection with 0.2 ml heparinized blood diluted to contain 1×10^7 N-clone parasites. The aminoindole analogs were formulated in 1.6% lactic acid mixed sodium salt, 1% Tween 80, 9% ethanol and 20% Cerestar (hydroxypropyl β-cyclodextrin; Wacker Chimie) and were administered by oral gavage. […] Animals in the Control-group received vehicle alone. Dose concentration and frequency of dosing were based upon preliminary tolerability/exposure studies. On Day 4 post-infection (5th day of assay) blood was collected by tail-nick, and thin smear microscope slides were prepared and stained using Diff Quick®. Parasitized erythrocytes were counted and compared with the total number of erythrocytes per microscopic field to determine the percent parasitemia. A minimum of 350 erythrocytes were counted. Animals showing no detectable parasites on Day 4 were examined every 2-3 days to determine whether cure was sterile. Animals with no detectable parasites 28 days after cessation of dosing (Study Day 33) were considered cured.

[7] = test system: P. berghei ANKA strain; test: In vitro potency against P. berghei ANKA; format: cell-based; settings: Plasmodium berghei, read-out: Potency (IC50; nM) Plasmodium spp. Pb ANKA
[8] = read-out: Potency (IC50; nM) Plasmodium spp. Pf 3D7
[9] = reductions in parasitemia, read-out: IC50 values

IC50 [1, 9] | SMILES | other results
1 to 100 nM | CCOc1ccc(F)cc1[C@]1(O)C(N)=Nc2ccc(Cl)cc21 (stereo in doubt) [Compound 266] | No. Cured ([6]; 100 mg/kg/day b.i.d. p.o.): 0/5; % Suppression Day 5 ([6]; 100 mg/kg/day b.i.d. p.o.): 81%; IC50 [7]: 342 nM; IC50 [1, 8]: 18 nM; IC50 [2]: > 195 µM; IC50 [3]: > 125 µM; IC50 [4]: 58 nM; IC50 [5]: > 195 µM
1 to 100 nM | COc1cc(C2(O)C(N)=Nc3ccc(Cl)cc32)c(OC)cn1 (stereo not shown) [Compound 202] | No. Cured ([6]; 100 mg/kg/day b.i.d. p.o.): 0/5; % Suppression Day 5 ([6]; 100 mg/kg/day b.i.d. p.o.): 95%; Average Day of Recrudescence ([6]; 200 mg/kg/day b.i.d. p.o., Study Day): 17 days; No. Cured ([6]; 200 mg/kg/day b.i.d. p.o.): 0/5; Recrudescence (no. animals/total) ([6]; 200 mg/kg/day b.i.d. p.o., no parasites on Day 5 but later regressed): 2/5; % Suppression Day 5 ([6]; 200 mg/kg/day b.i.d. p.o.): 98%; IC50 [1, 8]: 21 nM; IC50 [2]: > 195 µM; IC50 [3]: > 125 µM; IC50 [4]: 81 nM; IC50 [5]: > 195 µM
100 to 500 nM | COc1ccc2c(c1)C(O)(c1cc(F)ccc1N1CCOCC1)C(N)=N2 (stereo not shown) [Compound 179] | –
1 to 100 nM | CCOc1ccc(F)c(C2(O)C(N)=Nc3ccc(Cl)cc32)c1 (stereo not shown) [Compound 209] | –
1 to 100 nM | NC1=Nc2ccc(Cl)cc2C1(O)Cc1cc2ccccc2o1 (stereo not shown) [Compound 160] | –
1 to 100 nM | CCOc1cc(F)ccc1C1(O)C(N)=Nc2ccc(Cl)cc21 (stereo not shown) [Compound 225] | –
1 to 100 nM | CSc1ccc(F)c(C2(O)C(N)=Nc3ccc(Cl)cc32)c1 (stereo not shown) [Compound 204] | –
1 to 100 nM | NC1=Nc2ccc(Cl)cc2C1(O)c1ccccc1OC1CC1 (stereo not shown) [Compound 216] | –
1 to 100 nM | CC(C)Oc1ccccc1[C@@]1(O)C(N)=Nc2ccc(Cl)cc21 [Compound 223] | –
1 to 100 nM | CCOc1ccc(Cl)cc1C1(O)C(N)=Nc2ccc(C)cc21 (stereo not shown) [Compound 244] | –
1 to 100 nM | Cc1ccc2c(c1)C(O)(c1cc(Cl)ccc1OC(C)C)C(N)=N2 (stereo not shown) [Compound 245] | –
1 to 100 nM | CC(C)Sc1ccc(Cl)cc1C1(O)C(N)=Nc2ccc(Cl)cc21 (stereo not shown) [Compound 176] | –
1 to 100 nM | CC(C)Oc1ccc(F)cc1C1(O)C(N)=Nc2ccc(Cl)cc21 (stereo not shown) [Compound 154] | –
100 to 500 nM | COc1cnc(Cl)cc1C1(O)C(N)=Nc2ccc(Cl)cc21 (stereo not shown) [Compound 221] | –
1 to 100 nM | CC(C)(C)Oc1ccccc1C1(O)C(N)=Nc2ccc(Cl)cc21 (stereo not shown) [Compound 248] | –
100 to 500 nM | Cc1csc2c(CC3(O)C(N)=Nc4ccc(Cl)cc43)cccc12 (stereo not shown) [Compound 206] | –
1 to 100 nM | Cn1cc2cc(Cl)cc(C3(O)C(N)=Nc4ccc(Cl)cc43)c2n1 (stereo not shown) [Compound 252] | –

IC50 [1, 9] | SMILES | other results
100 to 500 nM | Cn1c(C2(O)C(N)=Nc3ccc(Cl)cc32)nc2cc(Br)ccc21 (stereo not shown) [Compound 241] | –
100 to 500 nM | COc1ccc2c(c1)C(O)(C1CC1)C(N)=N2 (stereo not shown) [Compound 180] | –
1 to 100 nM | COc1ccc(OC(C)(C)C)c(C2(O)C(N)=Nc3ccc(Cl)cc32)c1 (stereo not shown) [Compound 177] | –
1 to 100 nM | CCOc1cc(F)ccc1C1(O)C(N)=Nc2ccc(C)cc21 (stereo not shown) [Compound 251] | –
100 to 500 nM | CC(C)[C@]1(O)C(N)=Nc2ccc(Cl)cc21 [Compound 246] | –
1 to 100 nM | NC1=Nc2ccc(Cl)cc2C1(O)c1cc(Cl)ccc1OC1CC1 (stereo not shown) [Compound 219] | –
100 to 500 nM | Cn1cc(F)c2c(C3(O)C(N)=Nc4ccc(Cl)cc43)cccc21 (stereo not shown) [Compound 226] | –
1 to 100 nM | COc1ncc(Cl)cc1C1(O)C(N)=Nc2ccc(Cl)cc21 (stereo not shown) [Compound 238] | –
1 to 100 nM | CCOc1cc(C2(O)C(N)=Nc3ccc(Cl)cc32)c(Cl)cn1 (stereo not shown) [Compound 243] | –
1 to 100 nM | NC1=Nc2ccc(Cl)cc2C1(O)c1cc(Cl)ccc1F (stereo not shown) [Compound 186] | –
1 to 100 nM | CCSc1ccc(F)cc1C1(O)C(N)=Nc2ccc(Cl)cc21 (stereo not shown) [Compound 182] | –
1 to 100 nM | CCOc1cnc(OC)cc1C1(O)C(N)=Nc2ccc(Cl)cc21 (stereo not shown) [Compound 210] | –
1 to 100 nM | NC1=Nc2ccc(Cl)cc2C1(O)c1cc(F)ccc1N1CCCCCC1 (stereo not shown) [Compound 175] | –
1 to 100 nM | Cc1ccc(CC2(O)C(N)=Nc3ccc(Cl)cc32)s1 (stereo not shown) [Compound 181] | –
100 to 500 nM | CC(C)[C@@]1(O)C(N)=Nc2ccc(Cl)cc21 [Compound 247] | –
1 to 100 nM | Cc1ccc2c(c1)C(O)(c1cccc3ccccc13)C(N)=N2 (stereo not shown) [Compound 257] | –

Further lines, the compound ahead of its results:

SMILES | IC50 [1, 9] | other results
NC1=Nc2ccc(Cl)cc2C1(O)Cc1ccccc1 (stereo not shown) [Compound 38] | 1 to 100 nM | IC50 [1, 8]: 38 nM; IC50 [2]: > 62.5 µM; IC50 [3]: > 147 µM; IC50 [4]: 110 nM; IC50 [5]: > 62.5 µM
NC1=Nc2ccc(Cl)cc2C1(O)c1cccc2ccccc12 (stereo not shown) [Compound 11] | 1 to 100 nM | IC50 [1, 8]: 30 nM; IC50 [2]: 24 µM; IC50 [3]: > 129 µM; IC50 [4]: 37 nM; IC50 [5]: 24 µM
COc1ccc2c(c1)C(O)(c1cc3ccccc3s1)C(N)=N2 (stereo not shown) [Compound 153] | 1 to 100 nM | –
Cc1ccc2c(c1)C(O)(Cc1ccccc1)C(N)=N2 (stereo not shown) [Compound 131] | 1 to 100 nM | –
CN(C)c1cccc(C2(O)C(N)=Nc3ccccc32)c1 (stereo not shown) [Compound 15] | 100 to 500 nM | –
COc1ccc(CC2(O)C(N)=Nc3ccccc32)cc1 (stereo not shown) [Compound 126] | 100 to 500 nM | –
NC1=Nc2ccc(Cl)cc2C1(O)c1cccc(C(F)(F)F)c1 (stereo not shown) [Compound 14] | 100 to 500 nM | –
NC1=Nc2ccc(Cl)cc2C1(O)c1cccc2ccoc12 (stereo not shown) [Compound 150] | 1 to 100 nM | –
NC1=Nc2ncccc2C1(O)c1ccccc1 (stereo not shown) [Compound 66] | 5000 to 15000 nM | –
NC1=Nc2ccc(Cl)cc2C1(O)c1ccc(F)c2ccccc12 (stereo not shown) [Compound 12] | 1 to 100 nM | –
NC1=Nc2cccc(Cl)c2C1(O)c1cccc2ccccc12 (stereo not shown) [Compound 127] | 500 to 1000 nM | –
NC1=Nc2cc(Cl)cc(Cl)c2C1(O)c1ccccc1 (stereo not shown) [Compound 52] | 1000 to 5000 nM | –
NC1=Nc2ccc(OCc3ccccc3)cc2C1(O)c1ccccc1 (stereo not shown) [Compound 65] | 5000 to 15000 nM | –
CC(=O)Nc1ccccc1C1(O)C(N)=Nc2ccc(Cl)cc21 (stereo not shown) [Compound 103] | 5000 to 15000 nM | –
NC1=Nc2ccc(Cl)cc2C1(O)c1cccc2ccncc12 (stereo not shown) [Compound 117] | 100 to 500 nM | –
COc1ccc2c(c1)C(O)(c1ccccc1)C(N)=N2 (stereo not shown) [Compound 42] | 100 to 500 nM | –
NC1=Nc2ccc(CCc3ccccc3)cc2C1(O)c1ccccc1 (stereo not shown) [Compound 92] | 100 to 500 nM | –
COc1ccccc1C1(O)C(N)=Nc2ccc(Cl)cc21 (stereo not shown) [Compound 70] | 1 to 100 nM | –
CC(C)c1ccccc1C1(O)C(N)=Nc2ccc(Cl)cc21 (stereo not shown) [Compound 27] | 1 to 100 nM | –
COc1ccccc1CC1(O)C(N)=Nc2ccc(Cl)cc21 (stereo not shown) [Compound 134] | 1 to 100 nM | –
NC1=Nc2ccccc2C1(O)c1ccc(N2CCOCC2)cc1 (stereo not shown) [Compound 20] | 500 to 1000 nM | –
COc1ccc2c(c1)C(O)(c1ccccc1OC)C(N)=N2 (stereo not shown) [Compound 132] | 100 to 500 nM | –
NC1=Nc2ccccc2C1(O)c1ccc(C(F)(F)F)cc1 (stereo not shown) [Compound 8] | 100 to 500 nM | –
NC1=Nc2ccc(Cl)cc2C1(O)c1ccccc1-c1ccccc1Cl (stereo not shown) [Compound 114] | 100 to 500 nM | –
CC(C)(C)C1(O)C(N)=Nc2ccc(Cl)cc21 (stereo not shown) [Compound 75] | 100 to 500 nM | –
CCOc1nc(Cl)ccc1C1(O)C(N)=Nc2ccc(C)cc21 (stereo not shown) [Compound 64] | 5000 to 15000 nM | –
